Consider three compounds from patent US9750746B2 (priority 2013, dated 2017).

In assay [1] the test system is Aβ25-35 treated mice. Briefly: combination studies in the Aβ25-35 model in mice, all parameters examined. Type of assay: in vivo, Male Swiss OF-1 mice. Particulars: for minimal active dose: each drug, Aβ25-35 model in mice, ip; for efficacy of the drug alone in the combination studies with memantine: single drug, once 20 min before Aβ25-35.
Description: (a) Administration schedule, (b) Y-maze test; (c) passive avoidance response. Administration schedule: mice received ANAVEX2-73 (0.1, 0.3 mg/kg i.p.) and/or donepezil (0.25, 0.5 mg/kg i.p.) once 20 min before Aβ25-35 (9 nmol i.c.v.) at day 0. Animals were examined between days 7 and 9.
(a) Administration schedule, (b) Y-maze test; (c) passive avoidance response. Administration schedule: mice received ANAVEX2-73 (0.1, 0.3 mg/kg i.p.) and/or memantine (0.5, 1 mg/kg i.p.) once 20 min before Aβ25-35 (9 nmol i.c.v.) at day 0. Animals were examined between days 7 and 9.
The spontaneous alternation (YMT) and passive avoidance (PAT) responses are shown. […] The 100% protection level represents the Sc.Aβ/V group and the 0% level, the Aβ25-35/V group. Only the data with the lowest doses tested are shown.
(§1) Male Swiss OF-1 mice (Depré, St Doulchard, France), aged 7-9 weeks and weighing 32±2 g were used in this study. Animals were housed in plastic cages in groups. They had free access to food and water, except during behavioral experiments, and they were kept in a regulated environment (23±1° C., 40-60% humidity) under a 12 h light/dark cycle (light on at 07:00 am). Experiments were carried out between 09:00 am and 05:00 pm, in an experimental room within the animal facility. Mice were habituated 30 min before each experiment. Animal procedures were conducted in adherence with the EU Directive 86-609.
(§2) Donepezil (E2020) was from Eisai Tsukuba Research Laboratories (Tsukuba, Japan) and memantine was from Sigma-Aldrich (St Quentin-Fallavier, France). Drugs were solubilized in physiological saline solution and administered intraperitoneally (i.p.) in a volume of 100 μl per 20 g body weight. […] (Aβ25-35) and scrambled β25-35 (Sc.Aβ) peptides from Genepep (France) were solubilized in distilled water at 3 mg/ml and stored at 20° C. until use. Peptides were aged at 37° C. for 4 days and injected i.c.v. (3 μl per mouse).
(§3) Spatial working memory was examined through the measure of spontaneous alternation performance in the Y-maze. Animals were allowed to explore the Y-shaped maze during 8 min and the number of alternations (consecutive exploration of the 3 arms) and total number of arms entered was recorded.
(§4) Contextual long-term memory was measured using the step-through type passive avoidance test. During training, animals were placed in the white compartment of the two-compartment apparatus. The step-through latency to enter the dark compartment was recorded and mice received an electric shock (0.1 mA, 3 s). During the retention session, performed 24 h after training, the step-through latency to enter the dark compartement and escape latency, to re-exit, were recorded.
The test system of assay [2] is Aβ25-35 treated mice. Put plainly: spontaneous alternation in the Y-maze, Aβ25-35 treated mice. It counts as in vivo, Male Swiss OF-1 mice. The settings on record: hydrochloride.
Description: Administration schedule: mice received ANAVEX2-73 (0.1-1 mg/kg i.p.) once-a-day between days −7 and −1 and Aβ25-35 (9 nmol i.c.v.) at day 0. Animals were examined between days 7 and 9.
Administration schedule: mice received Aβ25-35 (9 nmol i.c.v.) at day 0 and ANAVEX2-73 (0.1, 0.3 mg/kg i.p.) once-a-day between days 7 and 13. Animals were examined between days 14 and 16.
Administration schedule: mice received ANAVEX2-73 (0.1, 0.3 mg/kg i.p.) and/or donepezil (0.25, 0.5 mg/kg i.p.) once 20 min before Aβ25-35 (9 nmol i.c.v.) at day 0. Animals were examined between days 7 and 9.
Administration schedule: mice received ANAVEX2-73 (0.1, 0.3 mg/kg i.p.) and/or memantine (0.5, 1 mg/kg i.p.) once 20 min before Aβ25-35 (9 nmol i.c.v.) at day 0. Animals were examined between days 7 and 9.
as §1
Donepezil (E2020) was from Eisai Tsukuba Research Laboratories (Tsukuba, Japan) and memantine was from Sigma-Aldrich (St Quentin-Fallavier, France). Drugs were solubilized in physiological saline solution and administered intraperitoneally (i.p.) in a volume of 100 μl per 20 g body weight. The amyloid-β[25-35] (Aβ25-35) and scrambled β25-35 (Sc.Aβ) peptides from Genepep (France) were solubilized in distilled water at 3 mg/ml and stored at 20° C. until use. Peptides were aged at 37° C. for 4 days and injected i.c.v. (3 μl per mouse).
as §3
Assay [3] relates to Aβ25-35 treated mice. Put plainly: step-through passive avoidance, Aβ25-35 treated mice. Type of assay: in vivo, Male Swiss OF-1 mice. The settings on record: hydrochloride.
Description: as §1, §2, §4
For assay [4], the system named is Aβ25-35 treated mice. Put plainly: lipid peroxidation in the hippocampus, Aβ25-35 treated mice. The settings on record: hydrochloride. Type of assay: in vivo, Male Swiss OF-1 mice.
Description: Administration schedule: mice received ANAVEX2-73 (0.1-1 mg/kg i.p.) once-a-day between days −7 and −1 and Aβ25-35 (9 nmol i.c.v.) at day 0. Animals were examined between days 7 and 9. Their brain dissected out and assessed for lipid peroxidation (LPO) at day 10.
Administration schedule: mice received Aβ25-35 (9 nmol i.c.v.) at day 0 and ANAVEX2-73 (0.1, 0.3 mg/kg i.p.) once-a-day between days 7 and 13. Animals were examined between days 14 and 16. Their brain dissected out and assessed for lipid peroxidation (LPO) at day 17.
as §1
Tetrahydro-N,N-dimethyl-2,2-diphenyl-3-furanmethanamine hydrochloride (ANAVEX2-73) was synthesized in the laboratory (Anavex Life Sciences, Greece). […] Drugs were solubilized in physiological saline solution and administered intraperitoneally (i.p.) in a volume of 100 μl per 20 g body weight. The amyloid-β[25-35] (Aβ25-35) and scrambled β25-35 (Sc.Aβ) peptides from Genepep (France) were solubilized in distilled water at 3 mg/ml and stored at 20° C. until use. Peptides were aged at 37° C. for 4 days and injected i.c.v. (3 μl per mouse).
Mouse hippocampus was homogenized in cold methanol, centrifuged at 1,000 g 5 min and supernatant collected. Homogenate was added to a solution of FeSO4 1 mM, H2SO4 0.25 M, xylenol orange 1 mM and incubated for 30 min at RT. Absorbance was measured at 580 nm (A5801), and 10 μl of cumene hydroperoxide (CHP) 1 mM was added and incubated for 30 min at RT. Absorbance was measured at 580 nm (A5802). Lipid peroxidation was determined as CHP equivalents: CHP eq.=A5801/A5802×[CHP (nmol)]×dilution, and expressed as percentage of the Sc.Aβ/V-treated group value.
Another assay has as its target σ1 (Homo sapiens, UniProt Q99720). Particulars: believed to bind; cited from earlier work.
In the next assay the target is σ2 sites (Homo sapiens, UniProt Q5BJF2). Particulars: reported binding analyses; cited from earlier work.
Assay [5] relates to muscarinic M1-M4 receptors. Particulars: cited from earlier work.
The next assay has as its system sodium channel site 2. Particulars: screening profile; cited from earlier work.
Assay [6] concerns Aβ25-35 treated mice. The settings on record: cited from earlier work.
Where [7] appears, read: delayed administration: 0.3 mg/kg ip (FIG. 2: 0.1, 0.3) once a day day 7 to 13 after Aβ25-35, measured 14 days after Aβ25-35, 0.3 mg/kg.
[8] abbreviates: early administration: 0.1, 0.3 mg/kg ip (FIG. 1: 0.1-1) once a day day -7 to -1 before Aβ25-35 (day 0), 7 days after Aβ25-35.
The mark [9] stands for this setting: administered before the Aβ25-35 peptide.
Where [10] appears, read: mice one week after icv Aβ25-35 (Villard et al. 2011).

pIC50: −log10 of the molar value. “Also recorded” adds a separate entry of the source.

Sequence of σ2 sites (Q5BJF2 whole entry): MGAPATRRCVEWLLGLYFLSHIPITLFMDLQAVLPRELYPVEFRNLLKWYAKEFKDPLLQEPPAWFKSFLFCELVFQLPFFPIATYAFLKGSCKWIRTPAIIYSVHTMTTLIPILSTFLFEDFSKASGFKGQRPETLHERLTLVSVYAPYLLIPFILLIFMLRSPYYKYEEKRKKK
Sequence of σ1 (Q99720 whole entry): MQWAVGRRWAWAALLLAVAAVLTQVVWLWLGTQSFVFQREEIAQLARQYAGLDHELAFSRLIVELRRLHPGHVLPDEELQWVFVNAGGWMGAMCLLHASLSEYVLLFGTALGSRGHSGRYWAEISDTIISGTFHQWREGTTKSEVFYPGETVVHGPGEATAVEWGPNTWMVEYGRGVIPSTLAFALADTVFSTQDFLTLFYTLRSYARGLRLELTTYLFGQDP

In the case of Donepezil [reference compound], the minimal active dose in the assay on Aβ25-35 treated mice [1] is 0.25 mg/kg.

For `CN(C)CC1CCOC1(c1ccccc1)c1ccccc1.Cl` (stereo not shown) [ANAVEX2-73, Tetrahydro-N,N-dimethyl-2,2-diphenyl-3-furanmethanamine hydrochloride], the “Aβ25-35-induced memory deficits, spontaneous alternation in the Y maze” value in the assay on Aβ25-35 treated mice [2] (setting [7]) is on record as “significant attenuations; also recorded: effective”. Besides, the “Aβ25-35-induced memory deficits, spontaneous alternation in the Y maze” value in the assay with Aβ25-35 treated mice [2] (setting [8]) was “significantly prevented; also recorded: blocked”. Moreover, the “Aβ25-35-induced memory deficits, passive avoidance response” value with Aβ25-35 treated mice [3] (setting [7]) is “significant attenuations; also recorded: effective”. Moreover, the “Aβ25-35-induced memory deficits, passive avoidance response” value in the assay with Aβ25-35 treated mice [3] (setting [8]) is “significantly prevented; also recorded: blocked”. Also, in the assay on Aβ25-35 treated mice [4] (setting [7]), the “Aβ25-35-induced lipid peroxidation increase (toxicity)” value is given as “significant attenuations; also recorded: effective”. The “Aβ25-35-induced lipid peroxidation in the hippocampus (toxicity)” value with Aβ25-35 treated mice [4] (setting [8]) is given as “significantly prevented; also recorded: blocked”. In addition, in the assay with Aβ25-35 treated mice [1], the minimal active dose amounted to 0.1 mg/kg and the “efficacy of the drug alone in the combination studies with memantine” value is listed as “therapeutic efficacy”. Further, the “affinity for sigma-1 receptors” value on σ1 is on record as “low micromolar range”. Also, at σ2 sites, the “affinity for σ2 sites” value is “no affinity”. The “affinity for muscarinic acetylcholine receptors” value in assay [5] (believed to bind) is “low micromolar range”. The pIC50 in assay [5] (screening profile, range over M1-M4) is 5.28 to 5.48. Further, the pIC50 with sodium channel site 2 was 5.29. Besides, in the assay with Aβ25-35 treated mice [6] (Lahmy et al. 2013), the “Aβ25-35-induced P-Akt decrease” value is listed as “blocked” and the “Aβ25-35-induced P-GSK-3β increase” value is “blocked”. In addition, in the assay with Aβ25-35 treated mice [6] (setting [9]), the “dose preventing hippocampal cell loss” value is 0.3 to 1 mg/kg, the “dose preventing oxidative stress” value is 0.3 to 1 mg/kg and the “dose preventing the appearance of Aβ25-35-induced learning deficits” value was 0.03 mg/kg. In the assay on Aβ25-35 treated mice [6] (in the dose-range tested), the “hyperphosphorylation of Tau on pathological epitopes (AT-100 clone)” value is recorded as “attenuated” and the “hyperphosphorylation of Tau on physiological epitopes (AT-8 antibody clone)” value was “attenuated”. Also, in the assay with Aβ25-35 treated mice [6] (setting [10]), the caspases induction entry is recorded as “attenuating”; the cellular loss entry is given as “attenuating”; the “learning and memory deficits” value was “attenuating”; the oxidative stress result was “attenuating”. In the assay on Aβ25-35 treated mice [6] (mouse, in vivo), the “Aβ25-35-induced endogenous Aβ1-42 seeding” value is “decreasing”. In the assay on Aβ25-35 treated mice [6] (one week after icv injection of Aβ25-35 peptide), the “reversing the learning impairments” value is “effective”.

For the compound `CC12CC3CC(C)(C1)CC(N)(C3)C2` [memantine, Memantine, reference compound], in the assay with Aβ25-35 treated mice [1], the “efficacy of the drug alone in the combination studies with memantine” value is recorded as “therapeutic efficacy”.

By pIC50 is commonly meant the negative decadic logarithm of the IC50, by convention in mol/L.
